# Patent US10736883B2, “Triazole furan compounds as agonists of the APJ receptor” (AMGEN INC., priority 2016, dated 2020)
# Biological target: APJ receptor (Homo sapiens (Human), UniProt P35414)
# Experiment: [35S]GTPγS binding assay on membranes from CHO cells stably expressing human APJ receptor
# Format: biochemical
# Details: membranes of CHO cells stably expressing human APJ receptor, means of several independent experiments, read-out: Activity hAPJ SPA EC50 IP
# How it was run: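 Membranes from CHO cells stably expressing human APJ were incubated with 0.2 nM [35S]GTPγS and ligands for 90 min at RT in 20 mM HEPES pH 7.5, 5 mM MgCl2, 200 mM NaCl, 3 μM GDP, 0.1% BSA with WGA PS beads. Nonspecific binding was set with 100 μM GTPγS. EC50 came from non-linear regression.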
# APJ receptor, sequence (P35414 whole entry): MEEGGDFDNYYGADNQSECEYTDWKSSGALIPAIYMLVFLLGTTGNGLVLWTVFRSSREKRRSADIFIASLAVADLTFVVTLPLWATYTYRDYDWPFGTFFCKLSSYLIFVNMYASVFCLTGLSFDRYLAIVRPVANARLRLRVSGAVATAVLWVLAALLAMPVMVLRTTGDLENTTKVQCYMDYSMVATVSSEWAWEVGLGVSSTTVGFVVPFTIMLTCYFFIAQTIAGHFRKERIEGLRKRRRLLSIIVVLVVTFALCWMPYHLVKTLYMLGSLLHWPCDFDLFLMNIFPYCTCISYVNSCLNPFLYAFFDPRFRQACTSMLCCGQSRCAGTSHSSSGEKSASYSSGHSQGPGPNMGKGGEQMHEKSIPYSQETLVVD
row,SMILES,EC50 [pM]
1,"COC[C@@H](Cc1ncc(F)cn1)S(=O)(=O)Nc1nnc(-c2ccc(C)o2)n1-c1c(OC)cccc1OC (single isomer, unassigned) [Example 78.0, (2R)—N-(4-(2,6-Dimethoxyphenyl)-5-(5-methyl-2-furanyl)-4H-1,2,4-triazol-3-yl)-1-(5-fluoro-2-pyrimidinyl)-3-methoxy-2-propanesulfonamide or (2S)—N-(4-(2,6-dimethoxyphenyl)-5-(5-methyl-2-furanyl)-4H-1,2,4-triazol-3-yl)-1-(5-fluoro-2-pyrimidinyl)-3-methoxy-2-propanesulfonamide]",770
2,"COc1cccc(OC)c1-n1c(NS(=O)(=O)[C@@H](C)[C@@H](O)c2ccc(F)cn2)nnc1-c1ccc(C)o1 (single isomer, unassigned) [Example 79.0]",980
3,"COc1cccc(OC)c1-n1c(NS(=O)(=O)[C@@H](C)[C@H](O)c2ccc(F)c(C#N)c2)nnc1-c1ccc(C)o1 (single isomer, unassigned) [Example 81.0]",1100
4,"COc1cccc(OC)c1-n1c(NS(=O)(=O)[C@H](C)[C@H](O)c2ccc(C#N)c(C)n2)nnc1-c1ccc(C)o1 (single isomer, unassigned) [Example 86.0]",230
5,"COc1cccc(OC)c1-n1c(NS(=O)(=O)[C@H](C)Cc2ncc(F)cn2)nnc1-c1cc(C)c(C)o1 (single isomer, unassigned) [Example 89.0, (R)—N-(4-(2,6-Dimethoxyphenyl)-5-(4,5-dimethylfuran-2-yl)-4H-1,2,4-triazol-3-yl)-1-(5-fluoropyrimidin-2-yl)propane-2-sulfonamide or (S)—N-(4-(2,6-dimethoxyphenyl)-5-(4,5-dimethylfuran-2-yl)-4H-1,2,4-triazol-3-yl)-1-(5-fluoropyrimidin-2-yl)propane-2-sulfonamide]",1900
6,"COc1cccc(OC)c1-n1c(NS(=O)(=O)[C@H](C)Cc2ncc(F)cn2)nnc1-c1cc(C)c(C)o1 (single isomer, unassigned) [Example 91.0, (R)—N-(4-(2,6-Dimethoxyphenyl)-5-(4,5-dimethylfuran-2-yl)-4H-1,2,4-triazol-3-yl)-1-(5-fluoropyrimidin-2-yl)propane-2-sulfonamide or (S)—N-(4-(2,6-dimethoxyphenyl)-5-(4,5-dimethylfuran-2-yl)-4H-1,2,4-triazol-3-yl)-1-(5-fluoropyrimidin-2-yl)propane-2-sulfonamide]",4200
7,"COc1cccc(OC)c1-n1c(NS(=O)(=O)[C@H](C)[C@@H](O)c2ncc(F)cn2)nnc1-c1ccc(C)o1 (single isomer, unassigned) [Example 93.0, (1R,2S)—N-(4-(2,6-Dimethoxyphenyl)-5-(5-methyl-2-furanyl)-4H-1,2,4-triazol-3-yl)-1-(5-fluoro-2-pyrimidinyl)-1-hydroxy-2-propanesulfonamide or (1S,2R)—N-(4-(2,6-dimethoxyphenyl)-5-(5-methyl-2-furanyl)-4H-1,2,4-triazol-3-yl)-1-(5-fluoro-2-pyrimidinyl)-1-hydroxy-2-propanesulfonamide]",140
8,"CCc1ccc(-c2nnc(NS(=O)(=O)[C@@H](C)Cc3ncc(F)cn3)n2-c2c(OC)cccc2OC)o1 (single isomer, unassigned) [Example 97.0, (2S)—N-(4-(2,6-Dimethoxyphenyl)-5-(5-ethyl-2-furanyl)-4H-1,2,4-triazol-3-yl)-1-(5-fluoro-2-pyrimidinyl)-2-propanesulfonamide or (2R)—N-(4-(2,6-dimethoxyphenyl)-5-(5-ethyl-2-furanyl)-4H-1,2,4-triazol-3-yl)-1-(5-fluoro-2-pyrimidinyl)-2-propanesulfonamide]",400
9,"CCc1ccc(-c2nnc(NS(=O)(=O)[C@@H](C)Cc3ncc(F)cn3)n2-c2c(OC)cccc2OC)o1 (single isomer, unassigned) [Example 99.0, (2S)—N-(4-(2,6-Dimethoxyphenyl)-5-(5-ethyl-2-furanyl)-4H-1,2,4-triazol-3-yl)-1-(5-fluoro-2-pyrimidinyl)-2-propanesulfonamide or (2R)—N-(4-(2,6-dimethoxyphenyl)-5-(5-ethyl-2-furanyl)-4H-1,2,4-triazol-3-yl)-1-(5-fluoro-2-pyrimidinyl)-2-propanesulfonamide]",1000
10,"COc1cccc(OC)c1-n1c(NS(=O)(=O)[C@@H]2CCC[C@H]2c2ncc(F)cn2)nnc1-c1ccc(C)o1 (single isomer, unassigned) [Example 101.0, (1R,2S)—N-(4-(2,6-Dimethoxyphenyl)-5-(5-methyl-2-furanyl)-4H-1,2,4-triazol-3-yl)-2-(5-fluoro-2-pyrimidinyl)cyclopentanesulfonamide or (1S,2R)—N-(4-(2,6-dimethoxyphenyl)-5-(5-methyl-2-furanyl)-4H-1,2,4-triazol-3-yl)-2-(5-fluoro-2-pyrimidinyl)cyclopentanesulfonamide]",2000
11,"COc1cccc(OC)c1-n1c(NS(=O)(=O)[C@@H]2CCC[C@H]2c2ncc(F)cn2)nnc1-c1ccco1 (single isomer, unassigned) [Example 104.0, (1R,2S)—N-(4-(2,6-Dimethoxyphenyl)-5-(2-furanyl)-4H-1,2,4-triazol-3-yl)-2-(5-fluoro-2-pyrimidinyl)cyclopentanesulfonamide or (1S,2R)—N-(4-(2,6-dimethoxyphenyl)-5-(2-furanyl)-4H-1,2,4-triazol-3-yl)-2-(5-fluoro-2-pyrimidinyl)cyclopentanesulfonamide]",22000
12,"COc1cccc(OC)c1-n1c(NS(=O)(=O)[C@@H](C)[C@H](OC)c2ncc(F)cn2)nnc1-c1ccc(C)o1 (single isomer, unassigned) [Example 116.0, (1R,2S)-N-(4-(2,6-dimethoxyphenyl)-5-(5-methylfuran-2-yl)-4H-1,2,4-triazol-3-yl)-1-(5-fluoropyrimidin-2-yl)-1-methoxypropane-2-sulfonamide or (1S,2R)-N-(4-(2,6-dimethoxyphenyl)-5-(5-methylfuran-2-yl)-4H-1,2,4-triazol-3-yl)-1-(5-fluoropyrimidin-2-yl)-1-methoxypropane-2-sulfonamide]",56
13,"CCO[C@@H](c1ncc(C)cn1)[C@H](C)S(=O)(=O)Nc1nnc(-c2ccc(C)o2)n1-c1c(OC)cccc1OC (single isomer, unassigned) [Example 117.0, (1S,2S)-N-(4-(2,6-dimethoxyphenyl)-5-(5-methylfuran-2-yl)-4H-1,2,4-triazol-3-yl)-1-ethoxy-1-(5-methylpyrimidin-2-yl)propane-2-sulfonamide or (1R,2R)-N-(4-(2,6-dimethoxyphenyl)-5-(5-methylfuran-2-yl)-4H-1,2,4-triazol-3-yl)-1-ethoxy-1-(5-methylpyrimidin-2-yl)propane-2-sulfonamide]",61
14,"CCO[C@H](c1ncc(C)cn1)[C@H](C)S(=O)(=O)Nc1nnc(-c2ccc(C)o2)n1-c1c(OC)cccc1OC (single isomer, unassigned) [Example 118.0]",84
15,"COc1cccc(OC)c1-n1c(NS(=O)(=O)[C@H](C)[C@H](OC)c2ncc(F)cn2)nnc1-c1ccc(C)o1 (single isomer, unassigned) [Example 122.0, (1R,2R)-N-(4-(2,6-dimethoxyphenyl)-5-(5-methylfuran-2-yl)-4H-1,2,4-triazol-3-yl)-1-(5-fluoropyrimidin-2-yl)-1-methoxypropane-2-sulfonamide or (1S,2S)-N-(4-(2,6-dimethoxyphenyl)-5-(5-methylfuran-2-yl)-4H-1,2,4-triazol-3-yl)-1-(5-fluoropyrimidin-2-yl)-1-methoxypropane-2-sulfonamide]",220
